Legend:
FKBP-12 = FKBP-12 (Homo sapiens, UniProt P62942); assay: FKBP-12 binding activity measurement using 3H-dihydro-FK506; conditions: for FKBP-12 binding activity (relative %): relative to FK506 = 100
Description: (1) The FKBP-12 binding activity measurement was carried out in the same manner as described in Clinical Chemistry, 38/7, 1307-1310 (1992), using ^3H-dihydro-FK506, FKBP-12, dextran charcoaled, etc.

[1] = tested on: mixed lymphocyte reaction; assay: in vitro mixed lymphocyte reaction (MLR) test; format: cell-based; conditions: for Immunosuppressive activity (in words): MLR; for Immunosuppressive activity (MLR) (relative %): relative to FK506 = 100
Description: (2) The immunosuppressive activity was measured by the well-known in vitro mixed lymphocyte reaction (MLR) test described, for example, in European Patent Application EP-0184162-A2, page 67.

[2] = target: T1, complex of FKBP-12, bovine calcineurin, bovine calmodulin and calcium ion (UniProt P48452+P62942+P63099); assay: Complex formation assay with solid-phase FKBP-12, detected by anti-calcineurin enzyme immunoassay (fluorometry); format: binding, human FKBP-12; bovine calcineurin and calmodulin; conditions: for Concentration dependence of fluorescence intensity (in words): Table 1 concentration series; for Complex forming activity (relative %): relative to FK506 = 100, calculated from Table 1 data
T1 construct: made in house; host or cells: E. coli HB101 (vector pFKBP333, tryptophan promoter)
Description: The plate was then washed 3 times with the same phosphate buffer solution as used in Preparation 1. FKBP-12 was thus bound to each well. An assay buffer (300 μl) having the composition shown below was added to each well and, after 15 minutes, it was removed, to block residual protein binding sites in each well. […] A solution (5 mg/ml) of a crude product, prepared by the conventional method, in 20 mM Tris-hydrochloride (pH 7.0) was 40-fold diluted with the above-mentioned assay buffer. Commercial bovine calmodulin was appropriately diluted with the above-mentioned assay buffer (to give a final concentration of 95 nM in the well). A methanol solution (1 mg/ml) of FK506 was appropriately diluted with the above-mentioned assay buffer. (3) Each well was washed (4 times) with the same buffer as the above-mentioned assay buffer except that it was free of bovine serum albumin and, then, an appropriate dilution (100 μl), in the assay buffer, of a rabbit polyclonal antibody recognizing the calcineurin Aα chain as obtained by the known method described, for example, in J. Neurochem., 58, 1643-1651 (1992) was added to each well, and the reaction was allowed to proceed at room temperature for 1 hour. (4) Each well was washed (4 times) with the same buffer as the above-mentioned assay buffer except that it was free of bovine serum albumin and, then, an appropriate dilution (100 μl), in the assay buffer, of alkaline phosphatase-labeled anti-rabbit IgG (Vector Laboratories) was added to each well. (5) Each well was washed (4 times) with the same buffer as the assay buffer except that it was free of bovine serum albumin and, then, 200 μl of a 4-methylumbelliferyl phosphate (hereinafter, 4-MU) substrate solution (1 mM), prepared as described below, was added to each well and, after the lapse of 20 minutes at room temperature, fluorometry (excitation wavelength 360 nm; emission wavelength 460 nm) was carried out using Cytofluor 2350 (trademark, Millipore Co. Ltd, USA). […] Ltd) was prepared with water and further diluted with a buffer solution (10 mM, pH 10.0) comprising diethanolamine (0.7 ml/l) and magnesium chloride hexahydrate (0.1 g/l) to give a 1 mM 4-MU substrate solution. Using the metabolites M-II and M-III shown below, which are already known as metabolites obtainable upon treatment of FK506 with rat liver microsome, as described, for example, in Drug Metabolism and Disposition, 21 (6), 971-977, quantitative analysis was carried out in the same manner as in Example 1.

FKBP-12, sequence (P62942 whole entry): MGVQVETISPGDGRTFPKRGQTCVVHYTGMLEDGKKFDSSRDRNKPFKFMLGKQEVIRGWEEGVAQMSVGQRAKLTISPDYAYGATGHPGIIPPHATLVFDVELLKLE

SMILES	FKBP-12 binding activity (relative %) (FKBP-12)	Immunosuppressive activity (in words) [1]	Immunosuppressive activity (MLR) (relative %) [1]	Detection by the complex assay method (in words) [2]	Concentration dependence of fluorescence intensity (in words) [2]	Complex forming activity (relative %) [2]	FKBP-12 binding activity (in words) (FKBP-12)
C=CC[C@@H]1/C=C(\C)C[C@H](C)C[C@H](OC)[C@H]2O[C@@](O)(C(=O)C(=O)N3CCCC[C@H]3C(=O)O[C@H](/C(C)=C/[C@@H]3CC[C@@H](O)[C@H](OC)C3)[C@H](C)[C@@H](O)CC1=O)[C@H](C)C[C@@H]2OC [FK506, 17-Allyl-1,14-dihydroxy-12-[2-(4-hydroxy-3-methoxycyclohexyl)-1-methylvinyl]-23,25-dimethoxy-13,19,21,27-tetramethyl-11,28-dioxa-4-azatricyclo[22.3.1.0^4,9]octacos-18-ene-2,3,10,16-tetraone]	100 relative %	have immunosuppressive activity	100 relative %	can be detected	give fluorescence intensities depending on their concentrations	100 relative %	–
C=CCC1/C=C(\C)CC(C)CC(O)C2OC(O)(C(=O)C(=O)N3CCCCC3C(=O)OC(/C(C)=C/C3CCC(O)C(C)C3)C(C)C(O)CC1=O)C(C)CC2OC (stereo not shown) [M-III]	116.0 relative %	has no immunosuppressive activity	0 relative %	is not detected	does not give concentration-dependent values	0 relative %	has FKBP-12 binding activity
C=CCC1/C=C(\C)CC(C)CC(OC)C2OC(O)(C(=O)C(=O)N3CCCCC3C(=O)OC(/C(C)=C/C3CCC(O)C(O)C3)C(C)C(O)CC1=O)C(C)CC2OC (stereo not shown) [M-II]	14.2 relative %	have immunosuppressive activity	100 relative %	can be detected	give fluorescence intensities depending on their concentrations	79.7 relative %	–

Source: patent publication US6338946B1, “Method for assaying immunosuppressant” (Fujisawa Pharmaceutical Co., Ltd., priority 1994, dated 2002)
